Assay results reported in ChEMBL document CHEMBL5625206, “Design, synthesis, and evaluation of novel pleuromutilin aryl acrylate derivatives as promising broad-spectrum antibiotics especially for combatting multi-drug resistant gram-negative bacteria” (Eur J Med Chem, 2023).
≈ marks a conversion by molar mass, not a printed value. Calls of active or inactive are those of the source. The rule behind the calls is not given here.

What was measured:
Staphylococcus aureus [1] = test: Antibacterial activity against methicillin-resistant Staphylococcus aureus 171 clinical isolate assessed as bacterial growth inhibition incubated for 24 hrs by CLSI based broth microdilution method; format: functional
Enterococcus = test: Antibacterial activity against vancomycin-resistant Enterococcus 80 clinical isolate assessed as bacterial growth inhibition incubated for 24 hrs by CLSI based broth microdilution method; format: functional
[2] = Cytotoxicity against human A549 cells incubated for 24 hrs by CCK8 assay; format: toxicity, cell-based
Escherichia coli [3] = test: Inhibition of biofilm formation of Escherichia coli ATCC 25922 at MIC incubated for 24 hrs by crystal violet staining based analysis relative to control; format: functional
Staphylococcus aureus [4] = test: Inhibition of biofilm formation of methicillin-resistant Staphylococcus aureus ATCC 33591 at 8 times MIC incubated for 24 hrs by crystal violet staining based analysis relative to control; format: functional
Staphylococcus aureus [5] = test: Inhibition of biofilm formation of methicillin-resistant Staphylococcus aureus ATCC 33591 incubated for 24 hrs by crystal violet staining based analysis; format: functional, organism-based
Escherichia coli [6] = test: Induction of cell damage in Escherichia coli ATCC 25922 assessed as fold increase in extracellular ATP concentration at 2 times MIC incubated for 30 mins by fluorescence based analysis relative to control; format: functional; conditions: 0.5 h
Escherichia coli [7] = test: Induction of cell damage in Escherichia coli ATCC 25922 assessed as intracellular pH at 2 times MIC incubated for 30 mins by fluorescence based analysis (reference value: 6.05 +/- 0.10); format: functional; conditions: 0.5 h
Escherichia coli [8] = test: Depolarization of cell membrane in Escherichia coli ATCC 25922 by DiBAC4(3) probe based analysis; format: functional, organism-based
Escherichia coli [9] = test: Disruption of cell membrane integrity in Escherichia coli ATCC 25922 assessed as increase in red fluorescence at 1 to 4 times MIC incubated for 2 hrs by MycoLight green JJ98/PI staining based analysis; format: functional, organism-based
Escherichia coli [10] = test: Disruption of cell membrane integrity in Escherichia coli ATCC 25922 assessed as appearance of pores on cell membrane at 4 times MIC incubated for 4 hrs by FESEM analysis; format: functional, organism-based
Staphylococcus aureus [11] = test: Antibacterial activity against methicillin-resistant Staphylococcus aureus ATCC 33591 infected in neutropenic Kunming mouse model assessed as reduction in infection-induced inflammatory cell inflammation in liver at 10 mg/kg, ip measured after 7 days; format: functional, organism-based; conditions: time 7.0 day
Staphylococcus aureus [12] = test: Antibacterial activity against methicillin-resistant Staphylococcus aureus ATCC 33591 infected in neutropenic Kunming mouse model assessed as reduction in infection-induced liver damage at 20 mg/kg, ip measured after 7 days; format: functional, organism-based; conditions: time 7.0 day
Staphylococcus aureus [13] = test: Antibacterial activity against methicillin-resistant Staphylococcus aureus ATCC 33591 infected in neutropenic Kunming mouse model assessed as reduction in infection-induced inflammatory cell infiltration in kidney at 20 mg/kg, ip measured after 7 days; format: functional, organism-based; conditions: time 7.0 day
Staphylococcus aureus [14] = test: Antibacterial activity against methicillin-resistant Staphylococcus aureus ATCC 33591 infected in neutropenic Kunming mouse model assessed as restoration of infection- induced change in cell morphology in kidney at 20 mg/kg, ip measured after 7 days; format: functional, organism-based; conditions: time 7.0 day
[15] = Half life in fasted Sprague-Dawley rat at 1 mg/kg, iv by LC-MS/MS analysis; format: ADME, organism-based; conditions: in vivo
[16] = Toxicity in fasted Sprague-Dawley rat assessed as mortality rate at 148 mg/kg, IG measured for 14 days; format: organism-based; conditions: in vivo, po, time 14 day
[17] = Toxicity in fasted male Sprague-Dawley rat assessed as body weight at 148 mg/kg, IG measured on same day (reference value: 212.7 +/- 13.2 g); format: organism-based; conditions: in vivo, po
[18] = Toxicity in fasted female Sprague-Dawley rat assessed as body weight at 331 mg/kg, IG measured on same day (reference value: 165.2 +/- 8.1 g); format: organism-based; conditions: in vivo, po
[19] = Toxicity in fasted female Sprague-Dawley rat assessed as body weight at 331 mg/kg, IG measured after 7 days (reference value: 188.2 +/- 9.2 g); format: organism-based; conditions: in vivo, po, 168 h, time 7 day
[20] = Toxicity in fasted female Sprague-Dawley rat assessed as body weight at 500 mg/kg, IG measured after 14 days (reference value: 214.3 +/- 9.8 g); format: organism-based; conditions: in vivo, po, 336 h, time 14 day
[21] = Toxicity in fasted female Sprague-Dawley rat assessed as animal growth rate at 100 mg/kg, IG measured for 14 days (reference value: 29.85 +/- 4.97 g); format: organism-based; conditions: in vivo, po, 336 h, time 14 day
[22] = Toxicity in fasted female Sprague-Dawley rat assessed as animal growth rate at 148 mg/kg, IG measured for 14 days (reference value: 29.85 +/- 4.97 g); format: organism-based; conditions: in vivo, po, 336 h, time 14 day
[23] = Toxicity in fasted female Sprague-Dawley rat assessed as relative liver weight ratio at 224 mg/kg, IG measured for 14 days (reference value: 3.199 +/- 0.062); format: organism-based; conditions: in vivo, po, 336 h, time 14 day
[24] = Toxicity in fasted male Sprague-Dawley rat assessed as relative kidney weight ratio at 100 mg/kg, IG measured for 14 days (reference value: 0.820 +/- 0.072); format: organism-based; conditions: in vivo, po, 336 h, time 14 day
[25] = Toxicity in fasted female Sprague-Dawley rat assessed as relative kidney weight ratio at 331 mg/kg, IG measured for 14 days (reference value: 0.802 +/- 0.031); format: organism-based; conditions: in vivo, po, 336 h, time 14 day
[26] = Toxicity in fasted female Sprague-Dawley rat assessed as relative kidney weight ratio at 500 mg/kg, IG measured for 14 days (reference value: 0.802 +/- 0.031); format: organism-based; conditions: in vivo, po, 336 h, time 14 day
[27] = Toxicity in fasted male Sprague-Dawley rat assessed as relative heart weight ratio at 100 mg/kg, IG measured for 14 days (reference value: 0.396 +/- 0.043); format: organism-based; conditions: in vivo, po, 336 h, time 14 day
[28] = Toxicity in fasted female Sprague-Dawley rat assessed as relative heart weight ratio at 500 mg/kg, IG measured for 14 days (reference value: 0.429 +/- 0.016); format: organism-based; conditions: in vivo, po, 336 h, time 14 day
[29] = Toxicity in fasted male Sprague-Dawley rat assessed as relative lung weight ratio at 148 mg/kg, IG measured for 14 days (reference value: 0.437 +/- 0.064); format: organism-based; conditions: in vivo, po, 336 h, time 14 day
[30] = Toxicity in fasted male Sprague-Dawley rat assessed as relative spleen weight ratio at 100 mg/kg, IG measured for 14 days (reference value: 0.246 +/- 0.037); format: organism-based; conditions: in vivo, po, 336 h, time 14 day
[31] = Toxicity in fasted female Sprague-Dawley rat assessed as relative spleen weight ratio at 224 mg/kg, IG measured for 14 days (reference value: 0.223 +/- 0.019); format: organism-based; conditions: in vivo, po, 336 h, time 14 day
[32] = Toxicity in fasted male Sprague-Dawley rat assessed as relative spleen weight ratio at 500 mg/kg, IG measured for 14 days (reference value: 0.246 +/- 0.037); format: organism-based; conditions: in vivo, po, 336 h, time 14 day
[33] = Toxicity in fasted female Sprague-Dawley rat assessed as relative ovary weight ratio at 224 mg/kg, IG measured for 14 days (reference value: 0.061 +/- 0.010); format: organism-based; conditions: in vivo, po, 336 h, time 14 day
[34] = Toxicity in fasted male Sprague-Dawley rat assessed as relative testis weight ratio at 500 mg/kg, IG measured for 14 days (reference value: 0.993 +/- 0.052); format: organism-based; conditions: in vivo, po, 336 h, time 14 day
[35] = Toxicity in fasted female Sprague-Dawley rat assessed as relative ovary weight ratio at 500 mg/kg, IG measured for 14 days (reference value: 0.061 +/- 0.010); format: organism-based; conditions: in vivo, po, 336 h, time 14 day

With C=C[C@]1(C)C[C@@H](OC(=O)COC(=O)/C=C/c2ccc(N(C)C)cc2)[C@]2(C)[C@H](C)CC[C@]3(CCC(=O)[C@H]32)[C@@H](C)[C@@H]1O as the compound, how does the MIC (Staphylococcus aureus [1]) read?
The MIC was 8 µg/mL (≈ 14.5 µM).

And the MIC (Enterococcus)?
The MIC was 4 µg/mL (≈ 7.25 µM).

And the CC50 at 24 h [2]?
Its CC50 at 24 h is greater than 200 µM.

And the “inhibition (INH)” value (Escherichia coli [3])?
Its value is 58.1%.

And the “inhibition (INH)” value (Staphylococcus aureus [4])?
The value was 97.64%.

And the inhibition (Staphylococcus aureus [5])?
The inhibition was “Dose-Dependent Effect”.

And the “fold change (FC)” value (Escherichia coli [6])?
Its value is 5.35.

What about the pH (Escherichia coli [7]) of the same compound?
Its pH is 3.23.

And the Activity (Escherichia coli [8])?
Its Activity is “Dose-Dependent Effect”.

What about the Activity (Escherichia coli [9]) of the same compound?
The Activity was “Active”.

And the Activity (Escherichia coli [10])?
The Activity was “Active”.

And the Activity (Staphylococcus aureus [11])?
The Activity was “inactive”.

And the Activity (Staphylococcus aureus [12])?
The Activity was “Active”.

What about the Activity (Staphylococcus aureus [13]) of the same compound?
The Activity was “Active”.

What about the Activity (Staphylococcus aureus [14]) of the same compound?
Its Activity is “Active”.

And the half-life [15]?
Its half-life is 40.8 min.

And the mortality at 336 h [16]?
Its mortality at 336 h is 0%.

And the Activity [17]?
The Activity was 208.6 g.

And the Activity [18]?
Its Activity is 171.3 g.

What about the Activity [19] of the same compound?
Its Activity is 196.2 g.

And the Activity [20]?
The Activity was 207.7 g.

And the Activity [21]?
Its Activity is 31.22%.

What about the Activity [22] of the same compound?
The Activity was 31.79%.

And the Ratio [23]?
Its Ratio is 3.197.

What about the Ratio [24] of the same compound?
Its Ratio is 0.822.

What about the Ratio [25] of the same compound?
Its Ratio is 0.832.

What about the Ratio [26] of the same compound?
The Ratio was 0.798.

What about the Ratio [27] of the same compound?
The Ratio was 0.396.

And the Ratio [28]?
Its Ratio is 0.449.

What about the Ratio [29] of the same compound?
The Ratio was 0.415.

What about the Ratio [30] of the same compound?
Its Ratio is 0.254.

What about the Ratio [31] of the same compound?
The Ratio was 0.249.

What about the Ratio [32] of the same compound?
Its Ratio is 0.209.

What about the Ratio [33] of the same compound?
Its Ratio is 0.073.

And the Ratio [34]?
The Ratio was 0.956.

What about the Ratio [35] of the same compound?
Its Ratio is 0.071.
